The values below come from US6780871B2, “Methods and compositions for treating addiction disorders” (Albany Medical College, priority 2001, dated 2004).

What all share (assay type): in vivo, rat
The test system of assay [1] is morphine self-administration. The assay is described as follows: intravenous morphine self-administration. The following applies: 18-methoxycoronaridine 1 mg/kg i.p., dextromethorphan 5 mg/kg s.c. The method, then:
Dextromethorphan hydrobromide (5 mg/kg; Sigma/RBI, St. Louis, Mo.) was dissolved in saline and injected subcutaneously 20 minutes before testing. Mecamylamine hydrochloride (1 mg/kg; Sigma/RBI, St. Louis, Mo.) was dissolved in physiological saline and injected intraperitoneally 30 minutes before testing. All rats received two injections. For rats that received a single drug, half of them also received the appropriate saline/vehicle injection corresponding to each of the other two drugs.
Naive female Long-Evans derived rats (250 g; Charles River, N.Y.) were maintained on a normal 12 h light cycle (lights on at 7:00 a.m., lights off at 7:00 p.m.). For all experiments the “Principles of Laboratory Animal Care” (NIH publication No. 85-23, revised 1985, which is hereby incorporated by reference) were followed.
The intravenous self-administration procedure described in Glick et al., “18-MC Reduces Methamphetamine and Nicotine Self-administration in Rats,” NeuroReport 11:2013-2015 (2000) (“Glick I”), which is hereby incorporated by reference, was employed. Briefly, responses on either of two levers (mounted 15 cm apart on the front wall of each operant test cage) were recorded on an IBM compatible computer with a Med Associates, Inc. interface. The intravenous self-administration system consisted of polyethylene-silicone cannulas constructed according to the design of Weeks, “Long-term Intravenous Infusion,” pp. 155-168 in Myers (ed.), Methods in Psychobiology, Vol. 2, New York: Academic Press (1972) (“Weeks”), which is hereby incorporated by reference; Instech harnesses and swivels; and Harvard Apparatus infusion pumps (#55-2222). Shaping of the bar-press response was initially accomplished by training rats to bar-press for water. Cannulas were then implanted in the external jugular vein according to procedures described in Weeks, which is hereby incorporated by reference. Self-administration testing began with a 16-h nocturnal session followed by daily 1-h sessions, 5 days (Monday-Friday) a week. A lever-press response produced a 10 μl infusion of drug solution (0.01 mg of morphine sulfate) in about 0.2 s or a 50 μl infusion of drug solution (0.025 mg of methamphetamine sulfate) in about 1 s. Since all rats generally weighed 250±20 g, each response delivered approximately 0.04 mg/kg of morphine or 0.1 mg/kg of methamphetamine. Experiments to assess the effects of experimental treatments were begun when baseline self-administration rates stabilized (≦10% variation from one day to the next across 5 days), usually after 2 weeks of testing.
Each data point represents the mean (±S.E.M.) percent of baseline of 6-8 rats. Significant differences between baseline and treatment are indicated by an asterisk (paired t-test, P<0.01-0.001).
Each data point represents the mean (±S.E.M.) percent of baseline of 5-8 rats. Significant differences between baseline and treatment are indicated by an asterisk (paired t-test), P<0.05-0.01).

In assay [2] the test system is methamphetamine self-administration. Kind of assay: intravenous methamphetamine self-administration.
Assay [3] relates to nicotine self-administration. Kind of assay: nicotine self-administration. The note with it: Example 7, FIGS. 11-12: mecamylamine 0.1 mg/kg i.p., 18-methoxycoronaridine 0.5 mg/kg i.p., dextromethorphan 0.5 mg/kg s.c., bupropion 5 mg/kg i.p.; 5-8 rats.

On to `COCC[C@H]1CC2CN3CCc4c([nH]c5ccccc45)[C@](C(=O)OC)(C2)[C@H]13` [18-methoxycoronaridine], for which the “effect on morphine self-administration (percent of baseline)” value in assay [1] (Example 5, FIG. 5: mecamylamine 1 mg/kg i.p., 6-8 rats) is “none of the drugs administered alone, significantly decreased”; in assay [1] (Example 6, FIG. 8: mecamylamine 1 mg/kg i.p., bupropion 5 mg/kg i.p., 5-8 rats), “none of the drugs administered alone, significantly decreased”. Also, the “effect on methamphetamine self-administration (percent of baseline)” value in assay [2] (Example 5, FIG. 6: mecamylamine 1 mg/kg i.p., 18-methoxycoronaridine 2 mg/kg i.p., dextromethorphan 5 mg/kg s.c., 6-7 rats) was “none of the drugs administered alone, significantly decreased”; in assay [2] (Example 6, FIG. 9: mecamylamine 1 mg/kg i.p., 18-methoxycoronaridine 5 mg/kg i.p., dextromethorphan 10 mg/kg s.c., bupropion 10 mg/kg i.p., 5-9 rats), “none of the drugs administered alone, significantly decreased”. Besides, in assay [3], the “effect on nicotine self-administration (percent of baseline)” value is “none of the drugs administered alone, significantly decreased”.
